US20030233678A1, “Pre- and post-harvest inhibition of remobilisation of storage compounds” (Mogen International N.V., priority 1997, published 2003)

Test system: potato tuber pieces containing at least one active meristem (wild-type and tps)
Test: Sprouting of cut tuber pieces incubated on gibberellic acid solutions
Type: in vivo, Solanum tuberosum Var. Kardal
Conditions: 1, 10 or 1000 ppm solution, 10 min incubation
Protocol: Pat-TPS plants (Var. […]) derived from tissue culture plants were grown in the phytochamber under 500 μmol quanta m-2 s-1 (16 h light, 20° C.; 8 h dark (15° C.)). Tubers were harvested after three months and stored in the cold (4° C.) for 2 months. Three days after transfer to room temperature (RT), tuber pieces were cut with a knife containing at least one active meristem (eye). Cut pieces originating from 3-10 tubers per line were washed for 15 min in tap water. Approximately 6-10 pieces were subsequently incubated for 10 min on either water or on a 1, 10 or 1000 ppm solution of gibberellic acid (GA3, SIGMA, Zwijndrecht, Netherlands). All pieces from one treatment were transferred to containers onto wet paper tissue and covered with a plastic top to prevent drying out.

C=C1C[C@]23C[C@@]1(O)CC[C@H]2[C@@]12C=C[C@H](O)[C@@](C)(C(=O)O1)[C@H]2[C@@H]3C(=O)O [GA3, gibberellic acid]
time until sprouting occurred (tps tuber pieces): ≤ 4 days
time until sprouting occurred (wild-type tuber pieces): ≤ 4 days
